Source: BigSolDB 2.1

CC[C@H](C)[C@H](N)C(=O)O
solubility (mole fraction)
Settings | 283.15 K | 288.15 K | 293.15 K | 298.15 K | 303.15 K | 308.15 K | 313.15 K | 318.15 K | 323.15 K | 328.15 K
in 1,4-dioxane | – | 0.00118 | 0.00132 | 0.00146 | 0.00172 | 0.00195 | 0.00226 | 0.00258 | 0.00303 | 0.00339
in 2-butanone | 0.000223 | 0.000324 | 0.000415 | 0.000538 | 0.000646 | 0.000819 | 0.000978 | 0.00118 | 0.00145 | –
in acetone | 1.21e-05 | 1.47e-05 | 1.82e-05 | 2.04e-05 | 3.19e-05 | 4.37e-05 | 6.14e-05 | 8.28e-05 | 0.000132 | –
in acetonitrile | 0.000153 | 0.000185 | 0.000276 | 0.000303 | 0.000374 | 0.000451 | 0.000525 | 0.000582 | 0.0007 | –
in ethanol | 0.000199 | 0.000227 | 0.000285 | 0.000363 | 0.000532 | 0.000716 | 0.000881 | 0.00101 | 0.00118 | –
in ethyl acetate | 0.000398 | 0.000441 | 0.000482 | 0.000544 | 0.000609 | 0.000656 | 0.000722 | 0.000803 | 0.000891 | –
in isobutanol | 0.00106 | 0.00125 | 0.0015 | 0.00186 | 0.00216 | 0.00246 | 0.00298 | 0.00346 | 0.00394 | –
in isopropanol | 0.00147 | 0.00173 | 0.00207 | 0.00241 | 0.00285 | 0.0034 | 0.00394 | 0.00454 | 0.00494 | –
in methanol | 0.000793 | 0.000814 | 0.000848 | 0.000891 | 0.000935 | 0.000984 | 0.00105 | 0.00114 | 0.00125 | –
in methyl acetate | 0.00174 | 0.00194 | 0.00223 | 0.00263 | 0.00292 | 0.00332 | 0.00387 | 0.00472 | 0.00545 | –
in n-butanol | 9.12e-05 | 0.000142 | 0.000221 | 0.000282 | 0.000372 | 0.000468 | 0.000585 | 0.00068 | 0.000838 | –
in n-propanol | 0.000187 | 0.000226 | 0.000268 | 0.000349 | 0.000515 | 0.00069 | 0.000817 | 0.0009 | 0.00101 | –
